Values quoted from earlier work, collected in patent US8906604B2, “Store-operated calcium cellular assay” (National Center for Biological Sciences, priority 2009, dated 2014).

Details: in Drosophila S2 cells; published value (Hardie et al. 1996); read-out: Kd value for Indo-1

Compound: Cc1ccc(N(CC(=O)O)CC(=O)O)c(OCCOc2cc(-c3cc4ccc(C(=O)O)cc4[nH]3)ccc2N(CC(=O)O)CC(=O)O)c1 [Indo-1]
- Kd: 1160 nM
